Measurements taken from PubChem BioAssay (NCI).
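Compound exposure: 48 hours, 5 concentrations, 96-well plates. The concentration for full growth arrest is given as TGI.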

Legend:
Assay in all cases: inhibition of tumour cell growth, NCI panel, 48 h
SF-295 CNS = tested on: SF-295 CNS
NCI-H460 lung = tested on: NCI-H460 lung
CCRF-CEM leukemia = tested on: CCRF-CEM leukemia
K-562 leukemia = tested on: K-562 leukemia
SNB-75 CNS = tested on: SNB-75 CNS
RPMI-8226 leukemia = tested on: RPMI-8226 leukemia
786-0 renal = tested on: 786-0 renal
NCI-H226 lung = tested on: NCI-H226 lung
HCT-15 colon = tested on: HCT-15 colon
MCF7 breast = tested on: MCF7 breast

SMILES	TGI (SF-295 CNS) [µM]	TGI (NCI-H460 lung) [µM]	TGI (CCRF-CEM leukemia) [µM]	TGI (K-562 leukemia) [µM]	TGI (SNB-75 CNS) [µM]	TGI (RPMI-8226 leukemia) [µM]	TGI (786-0 renal) [µM]	TGI (NCI-H226 lung) [µM]	TGI (HCT-15 colon) [µM]	TGI (MCF7 breast) [µM]
CC(=O)O[C@H]1CC[C@@]2(C)C(=CC[C@H]3[C@@H]4C[C@H](N5CCOCC5)[C@H](OC(C)=O)[C@@]4(C)CC[C@@H]32)C1	> 100	> 100	> 100	> 100	> 100	> 100	> 100	> 100	> 100	> 100
CC(C(O)Cc1ccccc1)N(C)N=Nc1ccc([N+](=O)[O-])cc1 (stereo not given)	46.2	32.3	> 100	> 100	> 100	55.5	38.6	39.5	61	80.6
CCOC(=O)C1C2CCC1CC(=NNc1ccc([N+](=O)[O-])cc1[N+](=O)[O-])C2 (stereo not given)	> 50	> 50	> 50	> 50	> 50	> 50	> 50	> 50	> 50	> 50
CC(C)=CCNc1ncnc2c1ncn2CCC#N	> 100	> 100	> 100	> 100	> 100	> 100	> 100	> 100	> 100	> 100
Cc1ccc2c(c1)C(=O)C1(C2)Cc2cccc(C)c2C1=O (stereo not given)	> 100	> 100	> 100	> 100	> 100	> 100	> 100	> 100	> 100	> 100
CCCCN=C(c1ccccc1)N1CCOCC1	> 100	> 100	> 100	> 100	83.5	> 100	> 100	> 100	> 100	> 100
CCOC(=O)NC(Nc1ccc([N+](=O)[O-])cc1)(C(F)(F)F)C(F)(F)F	> 100	> 100	> 100	> 100	> 100	> 100	> 100	> 100	> 100	> 100
C[N+]12CCCCC1C(CN1C(=O)Cc3c4ccccc4c(c4ccccc34)CC1=O)CCC2 (stereo not given)	> 100	> 100	> 100	> 100	> 100	> 100	> 100	> 100	> 100	> 100
Cn1c2ccccc2c(=NNc2cccc(C(=O)O)c2)c2ccccc21	58.5	22	25.6	13.8	54	28.3	52	48.6	51.4	11.7
CCOC(=O)NC(Nc1cccc(C(F)(F)F)c1)(C(F)(F)F)C(F)(F)F	> 100	> 100	> 100	> 100	> 100	> 100	> 100	> 100	> 100	> 100
COc1ccc2cc(C(C)C(=O)N3CCOC3=O)ccc2c1 (stereo not given)	> 100	> 100	> 100	> 100	> 100	> 100	> 100	> 100	> 100	> 100
Oc1cccc(-c2nc3cc(F)ccc3s2)c1	50.7	55.4	73.8	> 100	39.4	54.3	39	44	56.4	51.4
C=CCOc1ccc(C2(O)c3ccccc3C3=NCCCN32)cc1 (stereo not given)	> 100	> 100	> 100	> 87.2	> 100	> 78.5	> 78.6	> 100	> 100	> 100
